AC50 data for 14 molecules are collected here from ChEMBL document CHEMBL5291721, “A preclinical secondary pharmacology resource illuminates target-adverse drug reaction associations of marketed drugs” (Nat Commun, 2023).

One assay addresses Adenosine receptor A2a (Homo sapiens, UniProt P29274).
The target in another assay is T1, Adenosine receptor A3 (Homo sapiens, UniProt P0DMS8).
T1 sequence (P0DMS8 whole entry): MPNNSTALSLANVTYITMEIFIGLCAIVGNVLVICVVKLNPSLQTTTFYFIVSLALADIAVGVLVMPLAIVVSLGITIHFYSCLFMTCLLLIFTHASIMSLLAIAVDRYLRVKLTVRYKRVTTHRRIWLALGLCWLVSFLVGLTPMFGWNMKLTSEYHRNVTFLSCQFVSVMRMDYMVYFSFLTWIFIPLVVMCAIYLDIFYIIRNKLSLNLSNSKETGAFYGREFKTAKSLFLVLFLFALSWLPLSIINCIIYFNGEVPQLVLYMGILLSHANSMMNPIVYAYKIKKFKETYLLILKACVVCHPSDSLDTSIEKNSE

Assay [1] concerns the target T2, Muscarinic acetylcholine receptor M2 (Homo sapiens, UniProt P08172).
T2 sequence (P08172 whole entry): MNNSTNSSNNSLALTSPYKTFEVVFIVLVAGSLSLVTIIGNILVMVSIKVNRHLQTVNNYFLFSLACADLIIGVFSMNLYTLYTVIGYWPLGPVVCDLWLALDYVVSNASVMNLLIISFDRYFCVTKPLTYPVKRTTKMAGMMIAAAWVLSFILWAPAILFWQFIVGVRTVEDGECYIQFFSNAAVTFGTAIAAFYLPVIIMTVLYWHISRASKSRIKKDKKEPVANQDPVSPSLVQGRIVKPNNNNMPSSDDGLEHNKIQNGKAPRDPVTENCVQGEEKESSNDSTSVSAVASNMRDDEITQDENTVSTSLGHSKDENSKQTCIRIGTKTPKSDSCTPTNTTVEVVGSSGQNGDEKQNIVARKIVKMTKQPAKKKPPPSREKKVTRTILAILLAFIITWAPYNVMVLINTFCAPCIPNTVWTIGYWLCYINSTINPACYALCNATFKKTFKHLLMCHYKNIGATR
The format is functional, cell-based.

The target of assay [2] is Gamma-aminobutyric acid receptor subunit alpha-1 (Rattus norvegicus, UniProt P62813). The format is functional.
Sequence of Gamma-aminobutyric acid receptor subunit alpha-1 (P62813 whole entry): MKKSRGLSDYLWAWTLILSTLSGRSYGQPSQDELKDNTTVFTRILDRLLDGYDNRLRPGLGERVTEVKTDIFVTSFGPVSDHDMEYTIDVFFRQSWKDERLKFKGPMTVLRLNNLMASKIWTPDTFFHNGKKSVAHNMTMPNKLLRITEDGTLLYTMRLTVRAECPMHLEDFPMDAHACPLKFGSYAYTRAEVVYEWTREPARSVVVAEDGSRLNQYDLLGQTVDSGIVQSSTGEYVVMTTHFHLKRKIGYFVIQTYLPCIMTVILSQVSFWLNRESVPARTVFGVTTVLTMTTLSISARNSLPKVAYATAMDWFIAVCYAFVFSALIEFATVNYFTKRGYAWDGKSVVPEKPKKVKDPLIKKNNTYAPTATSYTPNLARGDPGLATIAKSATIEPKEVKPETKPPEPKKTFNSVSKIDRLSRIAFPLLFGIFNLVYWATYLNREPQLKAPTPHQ
The target of assay [3] is Glutamate receptor ionotropic, NMDA 1 (Rattus norvegicus, UniProt P35439).
Assay [4] deals with T3, 5-hydroxytryptamine receptor 2B (Homo sapiens, UniProt P41595). The format is functional, cell-based.
T3 sequence (P41595 whole entry): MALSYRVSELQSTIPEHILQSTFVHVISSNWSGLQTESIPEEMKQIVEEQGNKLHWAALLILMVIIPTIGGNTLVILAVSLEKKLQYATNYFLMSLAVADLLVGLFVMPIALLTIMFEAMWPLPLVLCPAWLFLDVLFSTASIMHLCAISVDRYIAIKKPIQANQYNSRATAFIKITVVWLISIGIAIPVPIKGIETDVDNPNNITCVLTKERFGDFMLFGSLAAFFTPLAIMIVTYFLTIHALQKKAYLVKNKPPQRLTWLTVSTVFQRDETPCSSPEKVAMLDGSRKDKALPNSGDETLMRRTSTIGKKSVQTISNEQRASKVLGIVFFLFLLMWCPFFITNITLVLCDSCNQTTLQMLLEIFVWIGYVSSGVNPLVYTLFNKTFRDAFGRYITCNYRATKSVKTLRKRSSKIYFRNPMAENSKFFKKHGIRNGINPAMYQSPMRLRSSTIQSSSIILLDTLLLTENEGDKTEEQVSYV
Assay [5] concerns the target T3, 5-hydroxytryptamine receptor 2B. The format is functional, cell-based. This is another data set of the same source.
Assay [6] deals with 3',5'-cyclic-AMP phosphodiesterase 4D (Homo sapiens, UniProt Q08499). The format is functional.
Sequence of 3',5'-cyclic-AMP phosphodiesterase 4D (Q08499 whole entry): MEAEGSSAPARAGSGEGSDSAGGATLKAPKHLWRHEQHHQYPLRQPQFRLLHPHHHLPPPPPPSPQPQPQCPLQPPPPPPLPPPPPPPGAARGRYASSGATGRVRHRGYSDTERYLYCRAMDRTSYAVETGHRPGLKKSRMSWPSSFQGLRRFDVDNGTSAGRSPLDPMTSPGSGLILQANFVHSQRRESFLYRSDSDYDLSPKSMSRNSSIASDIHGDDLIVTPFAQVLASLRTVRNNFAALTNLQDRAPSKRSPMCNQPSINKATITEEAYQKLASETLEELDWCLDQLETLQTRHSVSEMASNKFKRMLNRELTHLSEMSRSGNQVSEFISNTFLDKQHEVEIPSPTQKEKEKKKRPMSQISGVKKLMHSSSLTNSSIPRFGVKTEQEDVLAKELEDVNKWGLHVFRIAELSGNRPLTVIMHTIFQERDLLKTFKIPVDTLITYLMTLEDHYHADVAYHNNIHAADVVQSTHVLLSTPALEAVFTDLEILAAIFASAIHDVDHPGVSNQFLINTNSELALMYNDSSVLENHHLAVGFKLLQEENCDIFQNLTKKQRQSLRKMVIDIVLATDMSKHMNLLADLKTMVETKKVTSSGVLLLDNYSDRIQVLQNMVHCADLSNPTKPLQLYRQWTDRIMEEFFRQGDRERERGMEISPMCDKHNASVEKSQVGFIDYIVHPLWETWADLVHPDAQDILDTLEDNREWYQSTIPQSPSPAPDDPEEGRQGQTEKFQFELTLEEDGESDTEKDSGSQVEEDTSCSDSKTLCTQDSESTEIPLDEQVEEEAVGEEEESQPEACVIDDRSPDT
The target in a further assay is T4, Progesterone receptor (Homo sapiens, UniProt P06401).
T4 sequence (P06401 whole entry): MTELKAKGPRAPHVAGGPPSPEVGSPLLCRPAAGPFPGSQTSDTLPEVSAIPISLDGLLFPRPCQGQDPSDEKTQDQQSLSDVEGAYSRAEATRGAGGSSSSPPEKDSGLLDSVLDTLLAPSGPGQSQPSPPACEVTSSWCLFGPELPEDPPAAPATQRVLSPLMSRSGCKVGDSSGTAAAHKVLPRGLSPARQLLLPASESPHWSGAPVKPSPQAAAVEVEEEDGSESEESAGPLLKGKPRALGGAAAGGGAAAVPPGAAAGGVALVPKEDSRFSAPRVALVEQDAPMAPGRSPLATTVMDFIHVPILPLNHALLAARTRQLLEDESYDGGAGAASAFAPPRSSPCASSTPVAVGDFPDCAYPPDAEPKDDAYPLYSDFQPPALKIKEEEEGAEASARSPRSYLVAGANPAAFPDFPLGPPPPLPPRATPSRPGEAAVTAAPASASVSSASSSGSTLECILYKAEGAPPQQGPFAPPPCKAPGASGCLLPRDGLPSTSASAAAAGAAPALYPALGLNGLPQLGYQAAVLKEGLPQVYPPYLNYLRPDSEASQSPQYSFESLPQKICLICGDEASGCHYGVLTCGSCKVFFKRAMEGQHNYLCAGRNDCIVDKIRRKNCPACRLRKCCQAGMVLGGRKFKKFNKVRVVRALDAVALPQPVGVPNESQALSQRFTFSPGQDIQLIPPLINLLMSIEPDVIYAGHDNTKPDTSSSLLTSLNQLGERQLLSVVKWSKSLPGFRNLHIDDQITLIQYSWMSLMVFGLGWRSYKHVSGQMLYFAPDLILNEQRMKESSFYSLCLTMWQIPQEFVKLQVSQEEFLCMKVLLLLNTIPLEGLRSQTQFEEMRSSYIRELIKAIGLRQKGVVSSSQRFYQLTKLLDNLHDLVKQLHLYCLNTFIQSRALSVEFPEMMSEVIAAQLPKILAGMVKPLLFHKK
The format is functional.

The target of assay [7] is T5, Equilibrative nucleoside transporter 1 (Homo sapiens, UniProt Q99808).
T5 sequence (Q99808 whole entry): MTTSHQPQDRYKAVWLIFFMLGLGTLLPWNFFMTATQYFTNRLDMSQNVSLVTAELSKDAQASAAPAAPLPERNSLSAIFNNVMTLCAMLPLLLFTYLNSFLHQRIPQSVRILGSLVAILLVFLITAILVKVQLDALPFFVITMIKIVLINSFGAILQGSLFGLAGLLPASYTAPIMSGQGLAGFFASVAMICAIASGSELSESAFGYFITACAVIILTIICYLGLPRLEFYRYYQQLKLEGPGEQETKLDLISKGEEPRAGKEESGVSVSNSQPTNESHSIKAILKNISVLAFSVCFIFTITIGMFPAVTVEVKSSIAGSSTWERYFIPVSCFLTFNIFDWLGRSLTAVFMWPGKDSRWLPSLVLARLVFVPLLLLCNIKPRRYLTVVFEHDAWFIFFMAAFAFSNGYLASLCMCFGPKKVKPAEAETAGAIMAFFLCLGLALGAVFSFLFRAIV

A further assay concerns the target Vasopressin V1a receptor (Homo sapiens, UniProt P37288).
Note: assay procedure not described here.

Sequence of Adenosine receptor A2a (P29274 whole entry): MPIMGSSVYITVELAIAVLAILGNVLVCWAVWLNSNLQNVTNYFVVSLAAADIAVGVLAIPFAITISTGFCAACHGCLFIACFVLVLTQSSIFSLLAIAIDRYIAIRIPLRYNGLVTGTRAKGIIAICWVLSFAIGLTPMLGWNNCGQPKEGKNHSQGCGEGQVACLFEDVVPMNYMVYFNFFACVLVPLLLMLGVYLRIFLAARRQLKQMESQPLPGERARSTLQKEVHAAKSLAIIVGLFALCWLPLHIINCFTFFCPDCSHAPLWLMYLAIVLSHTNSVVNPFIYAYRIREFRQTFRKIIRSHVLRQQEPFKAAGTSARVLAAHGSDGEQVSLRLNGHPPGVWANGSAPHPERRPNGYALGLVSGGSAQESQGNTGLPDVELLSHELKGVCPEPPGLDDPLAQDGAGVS
Sequence of Vasopressin V1a receptor (P37288 whole entry): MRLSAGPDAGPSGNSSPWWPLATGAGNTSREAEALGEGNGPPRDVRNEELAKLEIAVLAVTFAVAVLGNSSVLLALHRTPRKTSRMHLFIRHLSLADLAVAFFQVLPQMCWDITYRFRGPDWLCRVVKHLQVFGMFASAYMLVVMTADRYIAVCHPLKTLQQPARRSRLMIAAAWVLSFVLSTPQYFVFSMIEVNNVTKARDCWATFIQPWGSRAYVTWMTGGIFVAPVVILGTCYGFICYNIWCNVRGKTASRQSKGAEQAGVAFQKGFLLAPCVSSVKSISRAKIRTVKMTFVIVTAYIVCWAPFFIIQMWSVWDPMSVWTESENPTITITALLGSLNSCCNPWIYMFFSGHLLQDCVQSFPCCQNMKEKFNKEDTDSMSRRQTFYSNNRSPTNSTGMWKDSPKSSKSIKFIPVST

One may read the AC50 as the midpoint of the concentration-response curve, whichever way the signal moves. Lower therefore signals greater potency. In the case of `CC(C)C[C@H](NC(=O)[C@@H](O)[C@H](N)Cc1ccccc1)C(=O)O` [UBENIMEX], the concentration at half-maximal activity (AC50) (on Adenosine receptor A2a; at Adenosine receptor A3; in [1]; in assay [2]; in assay [3]; in assay [4]) was over 30 µM in each case. Also, the half-maximal activity concentration (AC50) (in assay [5]; in assay [6]; on Progesterone receptor; in [7]) was over 30 µM throughout.
In the case of `CC=CC1=C(C(=O)O)N2C(=O)[C@@H](NC(=O)[C@H](N)c3ccc(O)cc3)[C@H]2SC1` [CEFPROZIL], the half-maximal activity concentration (AC50) (at Adenosine receptor A2a; at Adenosine receptor A3; on Vasopressin V1a receptor; in assay [1]; in assay [2]; in assay [3]) was over 30 µM in each case. The AC50 (in [4]; in assay [5]; in assay [6]; at Progesterone receptor; in assay [7]) was over 30 µM each time.
With `CC1(C)S[C@@H]2[C@H](NC(=O)C(C(=O)O)c3ccccc3)C(=O)N2[C@H]1C(=O)O` (stereo not given in full) [CARBENICILLIN], the AC50 (at Adenosine receptor A2a; at Adenosine receptor A3; on Vasopressin V1a receptor; in assay [1]; in assay [2]; in [3]) was over 30 µM throughout. Also, the AC50 (in assay [4]; in assay [5]; in assay [6]; at Progesterone receptor; in assay [7]) was over 30 µM throughout.
With `CC(C)NC(=N)NC(=N)Nc1ccc(Cl)c(Cl)c1` [CHLORPROGUANIL], the AC50 in assay [2] is over 30 µM; in assay [3], over 30 µM; in assay [4], over 30 µM; in [5], 12.2 µM; in assay [6] it was over 30 µM.
With `CC(C(=O)O)c1ccc2oc(-c3ccc(Cl)cc3)nc2c1` (stereo not given) [BENOXAPROFEN], the AC50 (on Adenosine receptor A2a; on Adenosine receptor A3; in assay [1]; in [2]; in assay [3]; in [4]) was over 30 µM each time. Besides, the half-maximal activity concentration (AC50) (in assay [5]; in [6]; at Progesterone receptor; in [7]) was over 30 µM each time.
As to `CC(CN1c2ccccc2Sc2ccccc21)N(C)C` (stereo not given) [PROMETHAZINE], the concentration at half-maximal activity (AC50) at Adenosine receptor A2a is over 30 µM; on Adenosine receptor A3, over 30 µM; on Vasopressin V1a receptor, over 10 µM; in assay [1], 0.322 µM; in assay [2], over 10 µM; in [3], over 10 µM. The AC50 was over 10 µM in [4], 1.4 µM in [5], over 30 µM in [6] and over 30 µM in assay [7].
For `CNC[C@H](O)c1ccc(O)c(O)c1` [EPINEPHRINE], the concentration at half-maximal activity (AC50) was over 30 µM at Adenosine receptor A2a; 18 µM at Adenosine receptor A3; over 30 µM in assay [1]; over 30 µM in [2]; over 30 µM in assay [4]; over 30 µM in assay [5]. The AC50 (in [6]; on Progesterone receptor; in assay [7]) was over 30 µM in each case.
With `CC(=O)Nc1ccc(CC(=O)O)cc1` [ACTARIT], the AC50 (at Adenosine receptor A2a; on Adenosine receptor A3; at Vasopressin V1a receptor; in assay [1]; in assay [2]; in [3]) was over 30 µM throughout. The half-maximal activity concentration (AC50) (in assay [4]; in [5]; in assay [6]; at Progesterone receptor; in [7]) was over 30 µM throughout.
As for `COc1ccccc1OC1(C)OC(=O)c2ccccc2O1` (stereo not given) [GUAIMESAL], the AC50 (at Adenosine receptor A2a; on Adenosine receptor A3; at Vasopressin V1a receptor; at Progesterone receptor; in assay [7]) was over 30 µM each time.
As to `CCCCCCCN(CC)CCCC(O)c1ccc(NS(C)(=O)=O)cc1` (stereo not given) [IBUTILIDE], the half-maximal activity concentration (AC50) at Adenosine receptor A2a was over 30 µM; on Adenosine receptor A3, over 30 µM; at Vasopressin V1a receptor it was over 30 µM; in [1], 22 µM; in assay [2] it was over 30 µM; in [3], over 30 µM. Besides, the half-maximal activity concentration (AC50) (in [4]; in assay [5]; in assay [6]; on Progesterone receptor; in assay [7]) was over 30 µM throughout.
In the case of `Cc1cc(C2CCCCC2)n(O)c(=O)c1` [CICLOPIROX], the AC50 (on Adenosine receptor A2a; on Adenosine receptor A3; in assay [1]; in [6]; at Progesterone receptor) was over 30 µM throughout.
In the case of `CCC(=O)O[C@]1(C(=O)CCl)[C@@H](C)C[C@H]2[C@@H]3CCC4=CC(=O)C=C[C@]4(C)[C@@]3(F)[C@@H](O)C[C@@]21C` [CLOBETASOL PROPIONATE], the concentration at half-maximal activity (AC50) (at Adenosine receptor A2a; at Adenosine receptor A3; in assay [1]; in assay [2]; in assay [3]; in assay [4]) was over 30 µM in each case. Also, the AC50 was over 30 µM in assay [5], over 30 µM in [6], 0.053 µM at Progesterone receptor and over 30 µM in assay [7].
As for `C[N+](C)(C)CCOP(=O)(O)OP(=O)([O-])OC[C@H]1O[C@@H](n2ccc(N)nc2=O)[C@H](O)[C@@H]1O` [CITICOLINE], the AC50 in assay [1], in assay [2], in [3], in assay [4], in [5] and in assay [6] was over 30 µM in each case.
As for `Cn1cc(C(=O)[C@@H]2CCc3nc[nH]c3C2)c2ccccc21` [RAMOSETRON], the AC50 on Adenosine receptor A2a was over 30 µM; on Adenosine receptor A3 it was over 30 µM; at Vasopressin V1a receptor, over 30 µM; in [1] it was over 30 µM; in assay [2], 17 µM; in assay [3], over 30 µM. In addition, the AC50 in assay [4] was over 30 µM; in assay [5], 20 µM; in assay [6], over 30 µM; at Progesterone receptor, over 30 µM; in [7] it was over 30 µM.
